Test results as given in ChEMBL document CHEMBL5608244, “Preclinical Evaluation of Dihydropyrazole-Cored Positron Emission Tomography (PET) Ligands for Imaging of Receptor-Interacting Serine/Threonine Protein Kinase 1 (RIPK1) in the Brain” (J Med Chem, 2024).

What was measured:
[1] = Retention time of the compound by HPLC method; assay type: physicochemical
[2] = Lipophilicity, logD of compound at pH 7.4 by shake flask method; assay type: physicochemical; details: buffer
[3] = Drug uptake in Sprague-Dawley rat brain at 10 to 17.6 MBq, iv treated for about 1 min by PET analysis; assay type: ADME, organism-based; details: in vivo, dose 10-17.6 MBq
[4] = Drug uptake in Sprague-Dawley rat bone at 10 to 17.6 MBq, iv treated upto 30 mins by PET analysis; assay type: ADME, organism-based, Bone element; details: in vivo, 0.5 h, dose 10-17.6 MBq
[5] = Drug uptake in Sprague-Dawley rat brain at 10 to 17.6 MBq, iv pretreated with 1-(5-(3-fluorophenyl)-4,5-dihydro-1H-pyrazol-1-yl)-2,2-dimethylpropan-1-one followed by compound administration measured upto 30 mins by PET analysis; assay type: ADME, organism-based; details: in vivo, 0.5 h, dose 10-17.6 MBq
[6] = Stability in saline measured for 60 to 150 mins by reversed-phase HPLC analysis; assay type: physicochemical; details: buffer; time 60-150 min
[7] = Stability in Balb/c mouse plasma measured for 60 to 150 mins by reversed-phase HPLC analysis; assay type: ADME; details: time 60-150 min

Structure (SMILES) | Retention_time [1] [min] | logD [2] | SUVmax [3] | Drug uptake [4] | Drug uptake [5] | Stability [6] [%] | Stability [7] [%]
Cc1ccc(C2CC=NN2C(=O)C(C)(C)C)cc1F (stereo not given) | 21.7 |  |  |  |  |  | 
CC(C)(C)C(=O)N1N=CCC1c1cccc(F)c1 (stereo not given) | 21.74 |  |  |  |  |  | 
Cc1ccc(C2CC=NN2C(=O)C(C)(C)C)cc1[18F] (stereo not given) | 21.81 | 2.98 | 1.4 | Not Active | Active |  | 

The next lines start with the values.

Retention_time [1] [min] | logD [2] | SUVmax [3] | Drug uptake [4] | Drug uptake [5] | Stability [6] [%] | Stability [7] [%] | Structure (SMILES)
13.66 |  |  |  |  |  |  | CC(C)(C)C(=O)N1N=CCC1c1cc(F)cc(F)c1 (stereo not given)
13.76 | 2.58 | 1.8 | Not Active | Active | > 99 | > 97 | CC(C)(C)C(=O)N1N=CCC1c1cc(F)cc([18F])c1 (stereo not given)
